Experimental data from patent US20260306642A1, “STAT DEGRADERS AND USES THEREOF” (Recludix Pharma, Inc., priority 2023, published 2026).
Like-named read-outs stand apart in the source and are kept apart here.

How the values were obtained:
STAT6 = target: T1, STAT6 (Homo sapiens, UniProt P42226); experiment: STAT6 Fluorescence Polarization (FP) Assay; format: binding
T1 construct: Recombinant STAT6 protein (STAT6(W123-T658))
T1 sequence (P42226 123-658): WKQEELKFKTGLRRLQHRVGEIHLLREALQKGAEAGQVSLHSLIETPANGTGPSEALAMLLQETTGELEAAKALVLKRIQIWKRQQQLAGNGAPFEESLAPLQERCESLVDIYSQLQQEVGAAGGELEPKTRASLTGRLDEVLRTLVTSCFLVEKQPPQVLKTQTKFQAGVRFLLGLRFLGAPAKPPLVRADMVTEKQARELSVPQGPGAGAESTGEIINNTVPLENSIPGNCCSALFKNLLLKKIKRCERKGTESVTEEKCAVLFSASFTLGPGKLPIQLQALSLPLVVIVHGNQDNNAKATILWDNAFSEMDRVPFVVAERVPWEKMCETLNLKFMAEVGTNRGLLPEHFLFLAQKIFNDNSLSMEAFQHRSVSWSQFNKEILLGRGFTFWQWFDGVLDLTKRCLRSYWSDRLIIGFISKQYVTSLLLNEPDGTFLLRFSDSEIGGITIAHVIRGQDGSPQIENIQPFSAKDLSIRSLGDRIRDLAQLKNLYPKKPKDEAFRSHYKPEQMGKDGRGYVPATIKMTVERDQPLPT
Method: An FP assay was developed to determine IC50 values for test substances. Recombinant STAT6 protein (STAT6(W123-T658)) at 250 nM was combined with a fluorescently labeled, phosphotyrosine peptide probe (5-FAM-ApYKPFQDLI-NH2) at 2 nM in FP buffer (10 mM HEPES pH 7.4, 50 mM NaCl, 1 mM EDTA, 0.05% Tween 20, 2 mM DTT). 50 μL of STAT6-probe mixture was added to serial diluted compounds in black, 96-well plates (Greiner BioOne 655076) to a final concentration of 1% DMSO. Reaction components were mixed, and FP was measured after 45-minute incubation at room temperature using a Tecan Spark multimode plate reader. FP signal (mP) was plotted against the log concentration of the test substances and IC50 values were calculated by nonlinear regression analysis using GraphPad Prism software. For STAT6 FP assay, A=≤300 nM; B=>300-3000 nM; C=>3-30 μM; and D=>30 μM.

STAT3 = target: T2, STAT3 (Homo sapiens, UniProt P40763); experiment: STAT3 Fluorescence Polarization (FP) Assay; format: binding
T2 construct: Recombinant STAT3 protein (STAT3(G127-I722))
T2 sequence (P40763 127-722): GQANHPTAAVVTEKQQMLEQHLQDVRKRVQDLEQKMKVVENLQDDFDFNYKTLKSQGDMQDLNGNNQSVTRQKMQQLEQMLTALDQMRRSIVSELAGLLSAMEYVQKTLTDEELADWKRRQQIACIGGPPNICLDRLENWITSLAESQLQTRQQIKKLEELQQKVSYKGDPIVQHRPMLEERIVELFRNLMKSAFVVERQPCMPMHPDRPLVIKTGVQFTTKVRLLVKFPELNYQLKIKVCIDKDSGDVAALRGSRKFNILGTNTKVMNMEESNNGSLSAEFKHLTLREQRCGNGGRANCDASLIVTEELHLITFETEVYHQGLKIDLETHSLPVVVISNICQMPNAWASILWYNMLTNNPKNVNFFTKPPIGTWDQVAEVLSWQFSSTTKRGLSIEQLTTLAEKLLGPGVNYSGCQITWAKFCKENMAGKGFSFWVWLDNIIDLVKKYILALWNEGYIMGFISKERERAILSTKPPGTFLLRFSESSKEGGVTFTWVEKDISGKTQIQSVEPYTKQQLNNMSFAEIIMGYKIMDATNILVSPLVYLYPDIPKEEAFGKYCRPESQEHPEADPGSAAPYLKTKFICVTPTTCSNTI
Method: An FP assay was developed to determine IC50 values for test substances.
Recombinant STAT3 protein (STAT3(G127-I722)) at 25 nM was combined with a fluorescently labeled, phosphotyrosine peptide probe (5-FAM-GpYLPQTV-NH2) at 2 nM in FP buffer (10 mM HEPES pH 7.4, 50 mM NaCl, 1 mM EDTA, 0.05% Tween 20, 2 mM DTT). 50 μL of STAT3-probe mixture was added to serial diluted compounds in black, 96-well plates (Greiner BioOne 655076) to a final concentration of 1% DMSO. Reaction components were mixed, and FP was measured after 45-minute incubation at room temperature using a Tecan Spark multimode plate reader. FP signal (mP) was plotted against the log concentration of the test substances and IC50 values were calculated by nonlinear regression analysis using GraphPad Prism software. For STAT3 FP assay, A=≤100 nM; B=>100-1000 nM; C=>1-10 μM; and D=>10 μM.

pSTAT3 = pSTAT3 (Homo sapiens, UniProt P40763); experiment: MSD-pSTAT-PBMC Assay (pSTAT3, IL-6 stimulated); format: cell-based
Sequence of pSTAT3 (P40763 whole entry): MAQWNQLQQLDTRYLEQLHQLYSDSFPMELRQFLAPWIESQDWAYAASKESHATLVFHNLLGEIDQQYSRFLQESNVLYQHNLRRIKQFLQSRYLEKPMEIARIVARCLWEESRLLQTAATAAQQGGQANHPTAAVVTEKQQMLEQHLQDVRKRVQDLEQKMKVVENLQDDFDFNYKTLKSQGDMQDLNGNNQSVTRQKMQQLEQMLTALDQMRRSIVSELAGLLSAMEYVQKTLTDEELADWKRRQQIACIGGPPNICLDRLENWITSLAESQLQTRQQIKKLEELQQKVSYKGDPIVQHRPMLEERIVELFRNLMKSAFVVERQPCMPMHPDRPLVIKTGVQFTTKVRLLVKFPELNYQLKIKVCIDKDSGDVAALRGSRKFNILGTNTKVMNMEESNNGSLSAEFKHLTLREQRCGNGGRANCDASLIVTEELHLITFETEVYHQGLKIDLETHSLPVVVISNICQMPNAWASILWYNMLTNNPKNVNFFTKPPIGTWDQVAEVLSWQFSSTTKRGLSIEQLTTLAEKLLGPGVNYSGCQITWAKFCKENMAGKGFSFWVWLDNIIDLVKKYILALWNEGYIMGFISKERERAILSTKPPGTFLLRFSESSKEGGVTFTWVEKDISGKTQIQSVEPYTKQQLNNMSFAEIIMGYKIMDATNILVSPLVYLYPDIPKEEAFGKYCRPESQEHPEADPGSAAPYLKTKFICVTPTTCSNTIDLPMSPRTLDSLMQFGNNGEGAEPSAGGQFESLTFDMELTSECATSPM
Text: Cryopreserved Peripheral Blood Mononuclear Cells (PBMC) are from AllCells. Recombinant Human IL-4 and IL-6 are from Peprotech. Mouse monoclonal anti-STAT3 antibody, rabbit monoclonal anti-pY705-STAT3 antibody, rabbit monoclonal Anti-pY641-STAT6 antibody, and lysis buffer are from Cell Signaling Technology (CST). Mouse monoclonal anti-STAT6 antibody is from BioLegend. Assay plates, blocker, and anti-rabbit secondary antibody are from Meso Scale Discovery (MSD).
Cryopreserved PBMCs were thawed out and allowed to recover overnight in IMDM+10% heat-inactivated FBS prior to plating 50,000 (STAT3) or 25,000 (STAT6) cells per well in 96-well U-bottom tissue culture plates. Cells were treated with compound for 3 hrs, then stimulated with 10 ng/mL IL-6 (STAT3) or 1 ng/mL IL-4 (STAT6) for 10 min. Cells were then spun down and washed with ice-cold PBS prior to lysing the cell pellet with 1× lysis buffer (CST) with 1× HALT protease and phosphatase inhibitor cocktail (Thermo). Lysates were transferred to and incubated overnight at 4° C. with shaking in QuickPlex 96-well high bind assay plates (MSD) pre-coated overnight with 30 μL per well of […] mouse monoclonal anti-STAT3 antibody (STAT3) or 2 μg/mL mouse monoclonal anti-STAT6 antibody (STAT6) in 1× PBS, and pre-blocked for 1 hour with 3% Blocker-A (MSD). Captured protein in the assay plates were then washed and probed with 25 μL per well of […] rabbit monoclonal anti-pY705-STAT3 antibody (STAT3) or […] rabbit monoclonal Anti-pY641-STAT6 antibody (STAT6) in 1% Blocker-A for 1 hour at room temperature with shaking, then washed and probed with 25 ul per well of 1 ug/ml Sulfo-TAG Labeled Goat Anti-Rabbit Antibody (MSD) in 1% Blocker-A for 1 hour at room temperature with shaking. Assay plates were then washed and 150 μL of 1× Read Buffer-T (MSD) was added to each well prior to reading on an SQ120 MSD Plate Reader. Assay signal from each sample was subtracted by the signal from unstimulated control wells and normalized to DMSO control wells. IC50 values were calculated using Graph Pad Prism Dose-Response Nonlinear Regression with variable slope. For both pSTAT3 and pSTAT6 A=≤100 nM; B=>100-1000 nM; C=>1000-3000 nM; and D=>3 μM.

[1] = compound 3 hrs, then 10 ng/mL IL-6 10 min, pY705-STAT3, read-out: pSTAT3 IC50
[2] = read-out: pSTAT3 IC50, compound 3 hrs, then 10 ng/mL IL-6 10 min, pY705-STAT3

SMILES | IC50 (STAT6) | IC50 (STAT3) | IC50 (pSTAT3; [1]) | IC50 (pSTAT3; [2])
Cc1ncsc1-c1ccc(CNC(=O)[C@@H]2C[C@@H](O)CN2C(=O)[C@@H](NCCCCOc2ccncc2C2CN(C(=O)[C@@H]3CC[C@@H]4CCC[C@H](NC(=O)c5cc6cc(C(F)(F)P(=O)(O)O)ccc6s5)C(=O)N43)C2)C(C)(C)C)cc1 [Compound 2, (difluoro(2-(((3S,6S,9aS)-3-(3-(4-(4-(((S)-1-((2S,4R)-4-hydroxy-2-((4-(4-methylthiazol-5-yl)benzyl)carbamoyl)pyrrolidin-1-yl)-3,3-dimethyl-1-oxobutan-2-yl)amino)butoxy)pyridin-3-yl)azetidine-1-carbonyl)-5-oxooctahydro-1H-pyrrolo[1,2-a]azepin-6-yl)carbamoyl)benzo[b]thiophen-5-yl)methyl)phosphonic acid] | 3 to 30 µM | < 0.1 µM | > 3 µM | 
Cn1c(=O)n(C2CCC(=O)NC2=O)c2ccc(C#CCCC3CCN(c4ccncc4C4CN(C(=O)[C@@H]5CC[C@@H]6CCC[C@H](NC(=O)c7cc8cc(C(F)(F)P(=O)(O)O)ccc8s7)C(=O)N65)C4)CC3)cc21 (stereo partly drawn) [Compound 34, ((2-(((3S,6S,9aS)-3-(3-(4-(4-(4-(1-(2,6-dioxopiperidin-3-yl)-3-methyl-2-oxo-2,3-dihydro-1H-benzo[d]imidazol-5-yl)but-3-yn-1-yl)piperidin-1-yl)pyridin-3-yl)azetidine-1-carbonyl)-5-oxooctahydro-1H-pyrrolo[1,2-a]azepin-6-yl)carbamoyl)benzo[b]thiophen-5-yl)difluoromethyl)phosphonic acid] | 0.3 to 3 µM | < 0.1 µM | 0.1 to 1 µM | 
Cc1ncsc1-c1ccc([C@H](C)NC(=O)[C@@H]2C[C@@H](O)CN2C(=O)[C@@H](NC(=O)COCCOCCC(=O)NC2(c3ccccn3)CN(C(=O)[C@@H]3CC[C@H]4CCCC[C@H](NC(=O)c5cc6cc(C(F)(F)P(=O)(O)O)ccc6s5)C(=O)N43)C2)C(C)(C)C)cc1 [Compound 33, (difluoro(2-(((3S,6S,10aR)-3-(3-(3-(2-(2-(((S)-1-((2S,4R)-4-hydroxy-2-(((S)-1-(4-(4-methylthiazol-5-yl)phenyl)ethyl)carbamoyl)pyrrolidin-1-yl)-3,3-dimethyl-1-oxobutan-2-yl)amino)-2-oxoethoxy)ethoxy)propanamido)-3-(pyridin-2-yl)azetidine-1-carbonyl)-5-oxodecahydropyrrolo[1,2-a]azocin-6-yl)carbamoyl)benzo[b]thiophen-5-yl)methyl)phosphonic acid] | 3 to 30 µM | < 0.1 µM |  | > 3 µM
Cc1ncsc1-c1ccc(CNC(=O)[C@@H]2C[C@@H](O)CN2C(=O)[C@@H](NC(=O)C2CCN(c3ccncc3C3CN(C(=O)[C@@H]4CC[C@@H]5CCC[C@H](NC(=O)c6cc7cc(C(F)(F)P(=O)(O)O)ccc7s6)C(=O)N54)C3)CC2)C(C)(C)C)cc1 [Compound 8, (difluoro(2-(((3S,6S,9aS)-3-(3-(4-(4-(((S)-1-((2S,4R)-4-hydroxy-2-((4-(4-methylthiazol-5-yl)benzyl)carbamoyl)pyrrolidin-1-yl)-3,3-dimethyl-1-oxobutan-2-yl)carbamoyl)piperidin-1-yl)pyridin-3-yl)azetidine-1-carbonyl)-5-oxooctahydro-1H-pyrrolo[1,2-a]azepin-6-yl)carbamoyl)benzo[b]thiophen-5-yl)methyl)phosphonic acid] | 0.3 to 3 µM | < 0.1 µM | 1 to 3 µM | 
Cn1c(=O)n(C2CCC(=O)NC2=O)c2ccc(C#CCCC3CCN(c4ccncc4C4CN(C(=O)[C@@H]5CC[C@@H]6CCC[C@H](NC(=O)c7cc8cc([C@@H](F)P(=O)(O)O)ccc8s7)C(=O)N65)C4)CC3)cc21 (stereo partly drawn) [Compound 40, ((1S)-(2-(((3S,6S,9aS)-3-(3-(4-(4-(4-(1-(2,6-dioxopiperidin-3-yl)-3-methyl-2-oxo-2,3-dihydro-1H-benzo[d]imidazol-5-yl)but-3-yn-1-yl)piperidin-1-yl)pyridin-3-yl)azetidine-1-carbonyl)-5-oxooctahydro-1H-pyrrolo[1,2-a]azepin-6-yl)carbamoyl)benzo[b]thiophen-5-yl)fluoromethyl)phosphonic acid] | > 30 µM | < 0.1 µM |  | < 0.1 µM
O=C1CCC(c2ccc(OCCOCCOc3ccncc3C3CN(C(=O)[C@@H]4CC[C@@H]5CCC[C@H](NC(=O)c6cc7cc(C(F)(F)P(=O)(O)O)ccc7s6)C(=O)N54)C3)cc2)C(=O)N1 (stereo partly drawn) [Compound 11, ((2-(((3S,6S,9aS)-3-(3-(4-(2-(2-(4-(2,6-dioxopiperidin-3-yl)phenoxy)ethoxy)ethoxy)pyridin-3-yl)azetidine-1-carbonyl)-5-oxooctahydro-1H-pyrrolo[1,2-a]azepin-6-yl)carbamoyl)benzo[b]thiophen-5-yl)difluoromethyl)phosphonic acid] | 3 to 30 µM | < 0.1 µM | > 3 µM | 
